Legend:
Type in all cases: cell-based
[1] = tested on: Ba/F3 cells expressing EGFR-wt; experiment: Growth inhibition (GI50) of Ba/F3 cells expressing EGFR-wt, Celltiter glo; details: Mus musculus, BaF3, 72 h
In short: (§1)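 Ba/F3 cells carrying each EGFR variant were plated at 100,000 cells/ml; after 4 h, compound was added as 10-point 4-fold dilutions (top stock 2 mM, 0.5% DMSO). After 72 h at 37 °C, viability was read by CellTiter-Glo; GI50 is the molar concentration (μM) giving 50% growth inhibition.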

[2] = tested on: Ba/F3 cells expressing del19/T790M/C797S (EGFR-DTC); experiment: Growth inhibition (GI50) of Ba/F3 cells expressing del19/T790M/C797S (EGFR-DTC), Celltiter glo; details: Mus musculus, BaF3, 72 h
In short: as §1

[3] = tested on: Ba/F3 cells expressing L858R/T790M/C797S (EGFR-LTC); experiment: Growth inhibition (GI50) of Ba/F3 cells expressing L858R/T790M/C797S (EGFR-LTC), Celltiter glo; details: Mus musculus, BaF3, 72 h
In short: as §1

[4] = tested on: Ba/F3 cells expressing del19/T790M (EGFR-DT); experiment: Growth inhibition (GI50) of Ba/F3 cells expressing del19/T790M (EGFR-DT), Celltiter glo; details: Mus musculus, BaF3, 72 h
Method: (§2) In this experimental example, a determination was made as to whether the compounds prepared in Examples 1-283 have the ability to inhibit the growth of Ba/F3 cells expressing EGFR-wt, del19/T790M/C797S (EGFR-DTC), L858R/T790M/C797S (EGFR-LTC), del19/T790M (EGFR-DT), and L858R/T790M (EGFR-LT) variants.
(§3) The parental Ba/F3 cell line is a population of cells that are not introduced with EGFR variants. Specifically, 100 μl of a cell line expressing each variant was plated in a 96-well plate at a density of 100,000 cells/ml. 10-point, 4-fold serial dilutions of each compound were prepared, starting at 2 mM. After 4 h, 0.5 μl of the compound (0.5% DMSO) was added, followed by incubation at 37° C. and 5% CO2 for 72 h. After incubation, the number of viable cells was measured using a Celltiter glo assay kit (Promega) and the GI50 of the compound was determined. The term “GI50” refers to the molar concentration (μM) of the compound required for 50% growth inhibition of cells.

[5] = tested on: Ba/F3 cells expressing L858R/T790M (EGFR-LT); experiment: Growth inhibition (GI50) of Ba/F3 cells expressing L858R/T790M (EGFR-LT), Celltiter glo; details: Mus musculus, BaF3, 72 h
Method: as §2, §3

parental Ba/F3 cell line = experiment: Growth inhibition (GI50) of the parental Ba/F3 cell line (not introduced with EGFR variants), Celltiter glo; details: Mus musculus, BaF3, 72 h, parental Ba/F3 cells
In short: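 Viable cell count by CellTiter-Glo after 72 h at 37 °C gave GI50 values (μM, 50% growth inhibition). Cells lacking EGFR variants were seeded at 100,000 cells/ml and dosed 4 h later with 4-fold serial dilutions from a 2 mM stock, 0.5% DMSO.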

Row | GI50 [1] [nM] | GI50 [2] [nM] | GI50 [3] [nM] | GI50 [4] [nM] | GI50 [5] [nM] | SMILES | GI50 (parental Ba/F3 cell line) [nM]
1 | 500 to 2000 | 100 to 500 | 100 to 500 | 1 to 25 | 100 to 500 | COc1nc(N2CCC(N3CCN(C)CC3)CC2)c(C)cc1Nc1ncc(Cl)c(Nc2ccc(F)cc2NS(C)(=O)=O)n1 [Example 15, N-(2-((5-chloro-2-((2-methoxy-5-methyl-6-(4-(4-methylpiperazin-1-yl)piperidin-1-yl)pyridin-3-yl)amino)pyrimidin-4-yl)amino)-5-fluorophenyl)methanesulfonamide] | 500 to 2000
2 | 25 to 100 | 500 to 2000 | 500 to 2000 | 500 to 2000 | 500 to 2000 | COc1nc(N2CCN(CCO)CC2)ccc1Nc1ncc(Cl)c(Nc2ccc(F)cc2NS(C)(=O)=O)n1 [Example 18] | 100 to 500
3 | 500 to 2000 | 500 to 2000 | 500 to 2000 | 500 to 2000 | 500 to 2000 | COc1nc(N2CCN(C(C)=O)CC2)ccc1Nc1ncc(Cl)c(Nc2ccc(F)cc2NS(C)(=O)=O)n1 [Example 19, N-(2-((2-((6-(4-acetylpiperazin-1-yl)-2-methoxypyridin-3-yl)amino)-5-chloropyrimidin-4-yl)amino)-5-fluorophenyl)methanesulfonamide] | 2000 to 10000
4 | 2000 to 10000 | 500 to 2000 | 500 to 2000 | 500 to 2000 | 500 to 2000 | COc1nc(N2C[C@@H](C)N(C)[C@@H](C)C2)ccc1Nc1ncc(Cl)c(Nc2ccc(F)cc2NS(C)(=O)=O)n1 [Example 20, N-(2-((5-chloro-2-((2-methoxy-6-((3S,5R)-3,4,5-trimethylpiperazin-1-yl)pyridin-3-yl)amino)pyrimidin-4-yl)amino)-5-fluorophenyl)methanesulfonamide] | 2000 to 10000
5 | 2000 to 10000 | 500 to 2000 | 500 to 2000 | 500 to 2000 | 2000 to 10000 | COc1nc(N2CCC(O)CC2)ccc1Nc1ncc(Cl)c(Nc2ccc(F)cc2NS(C)(=O)=O)n1 [Example 21, N-(2-((5-chloro-((6-(4-hydroxypiperidin-1-yl)-2-methoxypyridin-3-yl)amino)pyrimidin-4-yl)amino)-5-fluorophenyl)methanesulfonamide] | > 10000
6 | 2000 to 10000 | 500 to 2000 | 500 to 2000 | 25 to 100 | 2000 to 10000 | COc1nc(N2CCN(C3COC3)CC2)ccc1Nc1ncc(Cl)c(Nc2ccc(F)cc2NS(C)(=O)=O)n1 [Example 22, N-(2-((5-chloro-2-((2-methoxy-6-(4-(oxetan-3-yl)piperazin-1-yl)pyridin-3-yl)amino)pyrimidin-4-yl)amino)-5-fluorophenyl)methanesulfonamide] | 500 to 2000
7 | 100 to 500 | 100 to 500 | 100 to 500 | 100 to 500 | 500 to 2000 | COc1nc(N2CCC(N(C)C)C2)ccc1Nc1ncc(Cl)c(Nc2ccc(F)cc2NS(C)(=O)=O)n1 (stereo not drawn) [Example 23, N-(2-((5-chloro-2-((6-(3-(dimethylamino)pyrrolidin-1-yl)-2-methoxypyridin-3-yl)amino)pyrimidin-4-yl)amino)-5-fluorophenyl)methanesulfonamide] | 100 to 500
8 | 500 to 2000 | 25 to 100 | 25 to 100 | 25 to 100 | 100 to 500 | Cc1cc(Nc2ncc(Br)c(Nc3ccc(F)cc3NS(C)(=O)=O)n2)c(Cl)cc1N1CCC(N2CCCC(N(C)C)C2)CC1 (stereo not drawn) [Example 45] | 500 to 2000
9 | 500 to 2000 | 500 to 2000 | 500 to 2000 | 100 to 500 | 500 to 2000 | CNS(=O)(=O)c1ccccc1Nc1nc(Nc2ccc(N3CCC(N(C)C)C3)nc2OC)ncc1Cl (stereo not drawn) [Example 57, 2-((5-chloro-2-((6-(3-(dimethylamino)pyrrolidin-1-yl)-2-methoxypyridin-3-yl)amino)pyrimidin-4-yl)amino)-N-methylbenzenesulfonamide] | 500 to 2000

Continued, compound first:

Row | SMILES | GI50 [1] [nM] | GI50 [2] [nM] | GI50 [3] [nM] | GI50 [4] [nM] | GI50 [5] [nM] | GI50 (parental Ba/F3 cell line) [nM]
10 | COc1cc(N2CCC(N3CCCN(C)CC3)CC2)c(C)cc1Nc1ncc(Br)c(Nc2ccc(F)cc2NS(C)(=O)=O)n1 [Example 38, N-(2-((5-bromo-2-((2-methoxy-5-methyl-4-(4-(4-methyl-1,4-diazepan-1-yl)piperidin-1-yl)phenyl)amino)pyrimidin-4-yl)amino)-5-fluorophenyl)methanesulfonamide] | 100 to 500 | 25 to 100 | 25 to 100 | 25 to 100 | 100 to 500 | 500 to 2000
11 | COc1cc(N2CCC(N3CCCC(N(C)C)C3)CC2)c(C)cc1Nc1ncc(Br)c(Nc2ccc(F)cc2NS(C)(=O)=O)n1 (stereo not drawn) [Example 39, N-(2-((5-bromo-2-((4-(3-(dimethylamino)-[1,4′-bipiperidin]-1′-yl)-2-methoxy-5-methylphenyl)amino)pyrimidin-4-yl)amino)-5-fluorophenyl)methanesulfonamide] | 100 to 500 | 1 to 25 | 1 to 25 | 100 to 500 | 25 to 100 | 500 to 2000
12 | Cc1cc(Nc2ncc(Br)c(Nc3ccc(F)cc3NS(C)(=O)=O)n2)c(Cl)cc1N1CCC(N2CCCN(C)CC2)CC1 [Example 44, N-(2-((5-bromo-2-((2-chloro-5-methyl-4-(4-(4-methyl-1,4-diazepan-1-yl)piperidin-1-yl)phenyl)amino)pyrimidin-4-yl)amino)-5-fluorophenyl)methanesulfonamide] | 500 to 2000 | 25 to 100 | 25 to 100 | 25 to 100 | 100 to 500 | 500 to 2000
13 | CNS(=O)(=O)c1ccccc1Nc1nc(Nc2ccc(N3CCN(CCO)CC3)nc2OC)ncc1Cl [Example 56, 2-((5-chloro-2-((6-(4-(2-hydroxyethyl)piperazin-1-yl)-2-methoxypyridin-3-yl)amino)pyrimidin-4-yl)amino)-N-methylbenzenesulfonamide] | 500 to 2000 | 500 to 2000 | 500 to 2000 | 100 to 500 | 500 to 2000 | 2000 to 10000
14 | CNS(=O)(=O)c1ccccc1Nc1nc(Nc2cc(C)c(N3CCC(N4CCN(C)CC4)CC3)nc2OC)ncc1Cl [Example 58, 2-((5-chloro-2-((2-methoxy-5-methyl-6-(4-(4-methylpiperazin-1-yl)piperidin-1-yl)pyridin-3-yl)amino)pyrimidin-4-yl)amino)-N-methylbenzenesulfonamide] | 100 to 500 | 100 to 500 | 100 to 500 | 100 to 500 | 500 to 2000 | 100 to 500
15 | CC(=O)Nc1ccc(Cl)cc1Nc1nc(Nc2ccc(N3CCC(N4CCN(C)CC4)CC3)c(F)c2)ncc1Cl [Example 67, N-(4-chloro-2-((5-chloro-2-((3-fluoro-4-(4-(4-methylpiperazin-1-yl)piperidin-1-yl)phenyl)amino)pyrimidin-4-yl)amino)phenyl)acetamide] | 100 to 500 | 25 to 100 | 25 to 100 | 100 to 500 | 100 to 500 | 2000 to 10000
16 | CC(=O)Nc1ccccc1Nc1nc(Nc2cnc(N3CCC(N4CCN(C)CC4)CC3)c(F)c2)ncc1Cl [Example 70, N-(2-((5-chloro-2-((5-fluoro-6-(4-(4-methylpiperazin-1-yl)piperidin-1-yl)pyridin-3-yl)-amino)pyrimidin-4-yl)amino)phenyl)acetamide] | 100 to 500 | 25 to 100 | 25 to 100 | 25 to 100 | 25 to 100 | 500 to 2000

Source: US20240228458A1, “PYRIMIDINE DERIVATIVE HAVING PROTEIN KINASE INHIBITORY ACTIVITY, AND THERAPEUTIC PHARMACEUTICAL COMPOSITION COMPRISING SAME” (THERAPEX CO., LTD., priority 2021, published 2024)
